# Measurements: US8106019B2, “CHEC-7 a novel sPLA2 inhibitor” (Philadelphia Health & Education Corporation, priority 2002, dated 2012)
# Key:
# PLA2 = conditions: cited from earlier work
# human plasma PLA2 = conditions: 25 nM peptide
# plasma sPLA2 = conditions: LPS 4 mg/kg s.c.; peptide 0.4 mg/kg s.c. 60 min later
substance,measurement,setting,value
PMSF,PLA2 activity,PLA2,inhibits PLA2 activity
CAHAQAESC,survival of neural cells,neural cells,promotes survival of neural cells
CHEASQC [CHEC-7],dependence of inhibition on substrate concentration,human plasma PLA2,less effective at the lowest substrate concentrations
same,ex vivo inhibition of human plasma PLA2,"human plasma PLA2; 25% pooled ALS plasma, PED6 substrate",inhibition
same,LPS-induced increases in sPLA2 activity in plasma,plasma sPLA2,effective in attenuating
same,effect on LPS-induced plasma sPLA2 compared with CHEC-9,plasma sPLA2,greater and more sustained effect
